From patent US11236129B2, “IL-17A binding peptides and medical uses thereof” (Dompe' Farmaceutici S.P.A., priority 2018, dated 2022)
Residues, ends and D or L forms follow the SMILES beside them.

Target: IL-17RA/IL17RC dimerization induced by IL-17A (Homo sapiens, UniProt Q16552)
Assay: IL-17RA/IL17RC dimerization assay in response to IL-17A (PathHunter Cytokine Receptor Assay)
Type: cell-based
Conditions: IL-17A at EC80; read-out: IC50 in IL-17RA/IL7RC dimerization assay
Outline: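 PathHunter cells with IL-17RA and IL-17RC tagged for β-galactosidase complementation were preincubated 60 min with peptide (1% vehicle). IL-17A was then added at EC80 for 6–16 h at 37 °C, and chemiluminescence was read. Inhibition is relative to the EC80 and vehicle controls.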

Chain of IL-17RA/IL17RC dimerization induced by IL-17A (Q16552 24-155): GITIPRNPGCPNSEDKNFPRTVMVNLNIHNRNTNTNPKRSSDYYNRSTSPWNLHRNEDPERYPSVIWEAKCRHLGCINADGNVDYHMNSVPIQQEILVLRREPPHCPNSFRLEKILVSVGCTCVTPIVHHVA

IC50 [µM] | SMILES
< 10 | CC[C@H](C)[C@H](NC(=O)[C@H](Cc1c[nH]c2ccccc12)NC(=O)[C@H](CC(=O)O)NC(=O)[C@H](Cc1c[nH]c2ccccc12)NC(=O)[C@H](CC(C)C)NC(=O)[C@H](CC(=O)O)NC(=O)[C@H](C)NC(=O)[C@@H]1CCCN1C(=O)[C@@H](NC(=O)[C@H](Cc1ccc(O)cc1)NC(=O)[C@H](C)NC(=O)[C@H](CCCNC(=N)N)NC(=O)[C@@H](NC(C)=O)C(C)C)C(C)C)C(=O)N[C@@H](CC(N)=O)C(=O)N[C@@H](CCCCN)C(N)=O [SEQ ID NO: 243] (Ac-VRAYVPADLWDWINK-NH2)
< 10 | CC[C@H](C)[C@H](NC(=O)[C@H](Cc1c[nH]c2ccccc12)NC(=O)[C@H](CC(=O)O)NC(=O)[C@H](Cc1c[nH]c2ccccc12)NC(=O)[C@H](CC(C)C)NC(=O)[C@H](CC(=O)O)NC(=O)[C@H](C)NC(=O)[C@@H]1CCCN1C(=O)[C@@H](NC(=O)[C@H](Cc1ccc(O)cc1)NC(=O)[C@H](CC(C)C)NC(=O)[C@H](CCCNC(=N)N)NC(=O)[C@@H](NC(C)=O)C(C)C)C(C)C)C(=O)N[C@@H](CC(N)=O)C(=O)N[C@@H](CCCCN)C(N)=O [SEQ ID NO: 244] (Ac-VRLYVPADLWDWINK-NH2)
< 10 | CC[C@H](C)[C@H](NC(=O)[C@H](Cc1c[nH]c2ccccc12)NC(=O)[C@H](CC(=O)O)NC(=O)[C@H](Cc1c[nH]c2ccccc12)NC(=O)[C@H](CC(C)C)NC(=O)[C@H](CC(=O)O)NC(=O)[C@H](C)NC(=O)[C@@H]1CCCN1C(=O)[C@H](CC(C)C)NC(=O)[C@H](Cc1ccc(O)cc1)NC(=O)[C@@H](NC(=O)[C@H](CCCNC(=N)N)NC(=O)[C@@H](NC(C)=O)C(C)C)[C@@H](C)CC)C(=O)N[C@@H](CC(N)=O)C(=O)N[C@@H](CCCCN)C(N)=O [SEQ ID NO: 245] (Ac-VRIYLPADLWDWINK-NH2)
< 10 | CC[C@H](C)[C@H](NC(C)=O)C(=O)N[C@@H](Cc1c[nH]cn1)C(=O)N[C@H](C(=O)N[C@H](C(=O)N[C@H](C(=O)N1CCC[C@H]1C(=O)N[C@@H](CC(C)C)C(=O)N[C@@H](CCC(=O)O)C(=O)N[C@H](C(=O)N[C@@H](Cc1ccccc1)C(=O)N[C@@H](CCC(=O)O)C(=O)N[C@@H](Cc1c[nH]c2ccccc12)C(=O)N[C@@H](CC(C)C)C(=O)N[C@@H](CCC(N)=O)C(=O)N[C@@H](Cc1c[nH]cn1)C(N)=O)[C@@H](C)CC)[C@@H](C)CC)[C@@H](C)O)C(C)C [SEQ ID NO: 246] (Ac-IHVTIPLEIFEWLQH-NH2)
< 10 | CC[C@H](C)[C@H](NC(C)=O)C(=O)N[C@@H](Cc1c[nH]cn1)C(=O)N[C@H](C(=O)N[C@H](C(=O)N[C@H](C(=O)N1CCC[C@H]1C(=O)N[C@@H](CC(C)C)C(=O)N[C@@H](CCC(=O)O)C(=O)N[C@H](C(=O)N[C@@H](Cc1ccccc1)C(=O)N[C@@H](CCC(=O)O)C(=O)N[C@@H](Cc1c[nH]c2ccccc12)C(=O)N[C@@H](C)C(=O)N[C@@H](CCC(N)=O)C(=O)N[C@@H](Cc1c[nH]cn1)C(N)=O)[C@@H](C)CC)[C@@H](C)CC)[C@@H](C)O)C(C)C [SEQ ID NO: 247] (Ac-IHVTIPLEIFEWAQH-NH2)
< 10 | CC[C@H](C)[C@H](NC(C)=O)C(=O)N[C@@H](Cc1c[nH]cn1)C(=O)N[C@H](C(=O)N[C@H](C(=O)N[C@H](C(=O)N1CCC[C@H]1C(=O)N[C@@H](CC(C)C)C(=O)N[C@@H](CCC(=O)O)C(=O)N[C@H](C(=O)N[C@@H](Cc1ccccc1)C(=O)N[C@@H](CCC(=O)O)C(=O)N[C@@H](Cc1c[nH]c2ccccc12)C(=O)N[C@@H](CC(C)C)C(=O)N[C@@H](CCC(N)=O)C(=O)N[C@@H](CCCNC(=N)N)C(N)=O)[C@@H](C)CC)[C@@H](C)CC)[C@@H](C)O)C(C)C [SEQ ID NO: 248] (Ac-IHVTIPLEIFEWLQR-NH2)
< 10 | CC[C@H](C)[C@H](NC(C)=O)C(=O)N[C@@H](Cc1c[nH]cn1)C(=O)N[C@H](C(=O)N[C@H](C(=O)N[C@H](C(=O)N1CCC[C@H]1C(=O)N[C@@H](CC(C)C)C(=O)N[C@@H](CCC(=O)O)C(=O)N[C@H](C(=O)N[C@@H](Cc1ccccc1)C(=O)N[C@@H](CCC(=O)O)C(=O)N[C@@H](Cc1c[nH]c2ccccc12)C(=O)N[C@@H](CC(C)C)C(=O)N[C@@H](CCC(N)=O)C(=O)N[C@@H](Cc1c[nH]cn1)C(N)=O)C(C)C)[C@@H](C)CC)[C@@H](C)O)C(C)C [SEQ ID NO: 249] (Ac-IHVTIPLEVFEWLQH-NH2)
< 10 | CC[C@H](C)[C@H](NC(C)=O)C(=O)N[C@@H](Cc1c[nH]cn1)C(=O)N[C@H](C(=O)N[C@H](C(=O)N[C@H](C(=O)N1CCC[C@H]1C(=O)NCC(=O)N[C@@H](CCC(=O)O)C(=O)N[C@H](C(=O)N[C@@H](Cc1ccccc1)C(=O)N[C@@H](CCC(=O)O)C(=O)N[C@@H](Cc1c[nH]c2ccccc12)C(=O)N[C@@H](CC(C)C)C(=O)N[C@@H](CCC(N)=O)C(=O)N[C@@H](Cc1c[nH]cn1)C(N)=O)[C@@H](C)CC)[C@@H](C)CC)[C@@H](C)O)C(C)C [SEQ ID NO: 250] (Ac-IHVTIPGEIFEWLQH-NH2)
< 10 | CC[C@H](C)[C@H](NC(=O)[C@H](CCC(=O)O)NC(=O)[C@H](CCC(N)=O)NC(=O)[C@@H]1CCCN1C(=O)[C@@H](NC(=O)[C@H](CO)NC(=O)[C@H](Cc1ccccc1)NC(=O)[C@H](CCCNC(=N)N)NC(=O)[C@@H](NC(C)=O)C(C)C)C(C)C)C(=O)N[C@@H](Cc1ccc(O)cc1)C(=O)N[C@@H](CCC(=O)O)C(=O)N[C@@H](Cc1c[nH]c2ccccc12)C(=O)N[C@H](C(=O)N[C@@H](CCCNC(=N)N)C(=O)N[C@@H](CCCNC(=N)N)C(N)=O)C(C)C [SEQ ID NO: 251] (Ac-VRFSVPQEIYEWVRR-NH2)
< 10 | CC[C@H](C)[C@H](NC(=O)[C@H](CCC(=O)O)NC(=O)[C@H](CC(C)C)NC(=O)[C@@H]1CCCN1C(=O)[C@@H](NC(=O)[C@H](CO)NC(=O)[C@@H](NC(=O)[C@H](CCCNC(=N)N)NC(=O)[C@H](CC(C)C)NC(C)=O)[C@@H](C)CC)C(C)C)C(=O)N[C@@H](Cc1ccccc1)C(=O)N[C@@H](CCC(=O)O)C(=O)N[C@@H](Cc1c[nH]c2ccccc12)C(=O)N[C@@H](CC(C)C)C(=O)N[C@@H](CCC(N)=O)C(=O)N[C@@H](Cc1c[nH]cn1)C(N)=O [SEQ ID NO: 252] (Ac-LRISVPLEIFEWLQH-NH2)
< 10 | CC[C@H](C)[C@H](NC(=O)[C@H](CCC(=O)O)NC(=O)[C@H](CC(C)C)NC(=O)[C@@H]1CCCN1C(=O)[C@@H](NC(=O)[C@H](CO)NC(=O)CNC(=O)[C@H](CCCNC(=N)N)NC(=O)[C@H](CC(C)C)NC(C)=O)C(C)C)C(=O)N[C@@H](Cc1ccccc1)C(=O)N[C@@H](CCC(=O)O)C(=O)N[C@@H](Cc1c[nH]c2ccccc12)C(=O)N[C@@H](CC(C)C)C(=O)N[C@@H](CCC(N)=O)C(=O)N[C@@H](Cc1c[nH]cn1)C(N)=O [SEQ ID NO: 253] (Ac-LRGSVPLEIFEWLQH-NH2)
< 10 | CC[C@H](C)[C@H](NC(=O)[C@H](CCC(=O)O)NC(=O)[C@H](CC(C)C)NC(=O)[C@@H]1CCCN1C(=O)[C@@H](NC(=O)[C@H](CO)NC(=O)[C@@H](NC(=O)[C@H](CCCCN)NC(=O)[C@@H](NC(C)=O)C(C)C)[C@@H](C)CC)C(C)C)C(=O)N[C@@H](Cc1ccccc1)C(=O)N[C@@H](CCC(=O)O)C(=O)N[C@@H](Cc1c[nH]c2ccccc12)C(=O)N[C@@H](CC(C)C)C(=O)N[C@@H](CCC(N)=O)C(=O)N[C@@H](Cc1c[nH]cn1)C(N)=O [SEQ ID NO: 254] (Ac-VKISVPLEIFEWLQH-NH2)
